The record followed here is patent US20150366839A1, “Schisantherin A for the treatment of neurodegenerative diseases” (priority 2014, published 2015).

Molecules are shown by their SMILES.

In data set [1] the test system is GSK3β. Briefly: GSK3β phosphorylation (Ser9) after 6-OHDA, Western blot. The data set is classed as cell-based, Human. To be noted: pretreated 12 h, then 400 μM 6-OHDA 4 h. As to the method:
After treatment, SH-SY5Y cells were washed three times with PBS and then lysis with RIPA lysis buffer containing 1% PMSF and 1% Protease Inhibitor Cocktail and incubated for 30 min on ice. Cell lysates were centrifuged at 12,500 g for 20 min at 4° C. The supernatant was separated and the amount of protein was determined using the BCA protein assay kit (Thermo Scientific Pierce, USA). Protein samples (30 μg) were separated by SDS-PAGE (10% (w/v)) polyacrylamide gel and then transferred to a polyvinylidene difluoride (PVDF) membrane (Bio-Rad, Hercules, Calif.). Subsequently, the membrane was blocked with 5% (v/v) non-fat milk in PBST (PBS containing 0.1% Tween 20) for 1 h at room temperature. The blots were incubated overnight at 4° C. with primary antibodies. After three washes with PBST, the membranes were incubated with horseradish peroxidase-conjugated secondary antibodies (1:2000) in PBST with 5% non-fat milk for 1 h at room temperature. After repeated washes, proteins were visualized with an ECL advanced western blotting detection kit. Photographs of protein bands were taken by a Molecular Imager ChemiDoc XRS (Bio-Rad, Hercules, Calif.). Quantitative assessment of protein bands was done with Gel Doc™ XRS equipped with Quantity One software. […]

Data set [2] has as its system caspase-7. Briefly: MPP+-induced caspase-7 activation, Western blot. Conditions: 60 μM 12 h, then 2 mM MPP+ 36 h. The data set is classed as cell-based, Human. The procedure: (§1) After treatment, SH-SY5Y cells were washed three times with PBS and then lysis with RIPA lysis buffer containing 1% PMSF and 1% Protease Inhibitor Cocktail and incubated for 30 min on ice. Cell lysates were centrifuged at 12,500 g for 20 min at 4° C. The supernatant was separated and the amount of protein was determined using the BCA protein assay kit (Thermo Scientific Pierce, USA). Protein samples (30 μg) were separated by SDS-PAGE (10% (w/v)) polyacrylamide gel and then transferred to a polyvinylidene difluoride (PVDF) membrane (Bio-Rad, Hercules, Calif.). Subsequently, the membrane was blocked with 5% (v/v) non-fat milk in PBST (PBS containing 0.1% Tween 20) for 1 h at room temperature. The blots were incubated overnight at 4° C. with primary antibodies. After three washes with PBST, the membranes were incubated with horseradish peroxidase-conjugated secondary antibodies (1:2000) in PBST with 5% non-fat milk for 1 h at room temperature. […] Quantitative assessment of protein bands was done with Gel Doc™ XRS equipped with Quantity One software.
The inventors performed Western blot to measure the expression of active-form of caspase-3 and caspase-7 in SH-SY5Y cells. […] Caspase-3 activity was expressed as units per mg protein. ###p<0.005 versus control group; *p<0.05, **p<0.01 and *** p<0.005 versus MPP+ group.

Data set [3] relates to CREB. Briefly: p-CREB, CREB and Bcl-2 time course with SchiA alone, Western blot. Type of data set: cell-based, Human. Conditions: 60 μM alone. The procedure: After treatment, SH-SY5Y cells were washed three times with PBS and then lysis with RIPA lysis buffer containing 1% PMSF and 1% Protease Inhibitor Cocktail and incubated for 30 min on ice. Cell lysates were centrifuged at 12,500 g for 20 min at 4° C. The supernatant was separated and the amount of protein was determined using the BCA protein assay kit (Thermo Scientific Pierce, USA). Protein samples (30 μg) were separated by SDS-PAGE (10% (w/v)) polyacrylamide gel and then transferred to a polyvinylidene difluoride (PVDF) membrane (Bio-Rad, Hercules, Calif.). Subsequently, the membrane was blocked with 5% (v/v) non-fat milk in PBST (PBS containing 0.1% Tween 20) for 1 h at room temperature. The blots were incubated overnight at 4° C. with primary antibodies. After three washes with PBST, the membranes were incubated with horseradish peroxidase-conjugated secondary antibodies (1:2000) in PBST with 5% non-fat milk for 1 h at room temperature. After repeated washes, proteins were visualized with an ECL advanced western blotting detection kit. […] Quantitative assessment of protein bands was done with Gel Doc™ XRS equipped with Quantity One software.
To investigate the effect of SchiA on the activation of the upstream targets of CREB in MPP^+-treated SH-SY5Y cells, the protein levels of p-CREB/CREB and were determined. […]
(In western blotting, separated proteins are transferred to a membrane and probed.)

In data set [4] the test system is iNOS. Briefly: iNOS expression, Western blot. The data set is classed as cell-based, Human. The procedure: as §1, with “antibodies.” for “antibodies. After three washes with PBST, the membranes were incubated with horseradish peroxidase-conjugated secondary antibodies (1:2000) in PBST with 5% non-fat milk for 1 h at room temperature.”
Augmented NO production subsequent to iNOS induction appears to play an important role in the initial phase of 6-OHDA-induced neuro-damage models in vitro and in vivo (Singh, Das et al. 2005; Lin, Uang et al. 2007; Shih, Chen et al. 2011). […] Expression of the total iNOS proteins were determined by Western blot analysis. […] Results of FIGS. 4A-C are expressed as a percentage of relative fluorescent intensity (RFI) of the Control group. ###P<0.005 versus control group; *p<0.05, **p<0.01 and *** p<0.005 versus 6-OHDA group. […]

Data set [5] concerns Bax and Bcl-2. The data set is described as follows: Bax and Bcl-2 expression in MPP+-treated cells, Western blot. The data set is classed as cell-based, Human. The procedure: After treatment, SH-SY5Y cells were washed three times with PBS and then lysis with RIPA lysis buffer containing 1% PMSF and 1% Protease Inhibitor Cocktail and incubated for 30 min on ice. Cell lysates were centrifuged at 12,500 g for 20 min at 4° C. The supernatant was separated and the amount of protein was determined using the BCA protein assay kit (Thermo Scientific Pierce, USA). Protein samples (30 μg) were separated by SDS-PAGE (10% (w/v)) polyacrylamide gel and then transferred to a polyvinylidene difluoride (PVDF) membrane (Bio-Rad, Hercules, Calif.). Subsequently, the membrane was blocked with 5% (v/v) non-fat milk in PBST (PBS containing 0.1% Tween 20) for 1 h at room temperature. The blots were incubated overnight at 4° C. with primary antibodies. After three washes with PBST, the membranes were incubated with horseradish peroxidase-conjugated secondary antibodies (1:2000) in PBST with 5% non-fat milk for 1 h at room temperature. After repeated washes, proteins were visualized with an ECL advanced western blotting detection kit. Photographs of protein bands were taken by a Molecular Imager ChemiDoc XRS (Bio-Rad, Hercules, Calif.). Quantitative assessment of protein bands was done with Gel Doc™ XRS equipped with Quantity One software.
To investigate whether SchiA has any effect on the expression of Bax and Bcl-2 proteins in MPP^+-induced SH-SY5Y cells, the expression levels of Bax and Bcl-2 were determined by Western blot analysis. SH-SY5Y cells were pretreated with 60 μM SchiA for 12 h before incubating with 2 mM MPP for 36 h. The expression of Bax or Bcl-2 in cell lysates was determined by Western blot analysis. […] In this study, β-actin was shown as an internal control. In FIGS. 15A-B, the Bax/Bcl-2 ratio are expressed as a percentage of that of the control group. ###P<0.005 versus control group; ***P<0.005 versus MPP group.

The nature of data set [6]: SchiA pharmacokinetics study in plasma. Type of data set: in vivo, Sprague-Dawley rats. To be noted: microemulsion 30 mg/kg. As to the method: Male Sprague-Dawley rats (SD rats) with body weight between 220 and 250 g and age between 6 and 7 weeks were supplied by Guangdong Medical Experiment Animal Center (Guangzhou, China). SchiA was prepared as microemulsion for i.v. and p.o. at 30 mg/kg. The concentration of SchiA microemulsion was 4.9 mg/ml. After administration of SchiA, blood samples were collected at 0.033, 0.167, 0.5, 1, 2, 4, 8, 12, 24 and 36 h, respectively. Plasma samples were obtained after centrifugation of the collected blood samples at 10,000 rpm for 5 min. Subsequently, in 100 μl plasma which was taken from the supernatant, 200 μl of 50% acetonitrile and 50% methanol were added. After vortexing for 20 s and centrifuging at 12,000 rpm for 10 min, the supernatant was collected and filtered through a 0.22 μm membrane, of which 20 μl was injected into the chromatographic system for analysis.
Quantitative analysis of SchiA was completed on an Agilent series 1260 HPLC apparatus (Agilent Technologies, Santa Clara, Calif., USA) equipped with a vacuum degasser, a quaternary pump, a manual sampler and an ultraviolet detector. RP Phenonenex C-18 column (250 mm×4.6 mm, 5 μm) was used to separate at 35° C. with a mobile phase of water and methanol (83:17, v/v). The flow rate was 1 ml/min. The monitoring wavelength of SchiA was 230 nm.
And then non-compartmental model of DAS 2.0 program was chosen to calculate the major pharmacokinetic parameters.

[7] abbreviates: 60 μM 12 h, then 2 mM MPP+ 36 h.

On to `COc1cc2c(c(OC)c1OC)-c1c(cc3c(c1OC)OCO3)C[C@H](C)[C@](C)(O)[C@H]2OC(=O)c1ccccc1` [SchiA, Schisantherin A], for which the “6-OHDA-induced repression of GSK3β phosphorylation at serine 9” value in data set [1] is on record as “completely blocked”. Further, the “MPP+-induced caspase-7 activation (active form)” value in data set [2] is on record as “significant decrease”. For the same molecule, the “phosphorylation of CREB compared with 0 h” value in data set [3] (after 3 h) is “about 1.5 fold”. Moreover, the Bcl-2 expression result in data set [3] (from 3 h to 12 h) is “induced”. Besides, in data set [4] (60 μM 12 h, then 400 μM 6-OHDA 2 h), the “6-OHDA-induced iNOS expression” value is on record as “reduced the expression of iNOS induced by 6-OHDA significantly”. In data set [4] (60 μM, without 6-OHDA), the “iNOS expression, compound alone” value is listed as “no obvious influence”. Further, in data set [5] (setting [7]), the “MPP+-induced down-regulation of Bcl-2 expression” value is “could inhibit the down-regulation of Bcl-2 expression” and the “MPP+-induced increase of the Bax/Bcl-2 ratio” value is recorded as “effectively prevented”. The Bax protein expression result in data set [5] (60 μM, compared with control group) is “did not changed significantly”. Besides, in data set [5] (60 μM, without MPP+), the “Bcl-2 expression, compound alone” value is “increase the expression of Bcl-2”. The molecule also returned a t1/2 in data set [6] (i.v.) of 15.88 ± 1.82 h. Further, the Tmax (as a rule, the time at which the peak concentration occurs) in data set [6] (rat plasma) was found to be 1.33 ± 0.58 h. Besides, the t1/2 in data set [6] (p.o.) came out at 16.543 ± 6.95 h.
